Experimental data taken from patent US20040077634A1, “Treatment of diseases characterized by excessive or insufficient cell death” (priority 2001, published 2004).
Residues, ends and D or L forms follow the SMILES beside them. *: point of attachment. Cbz = O=C(OCc1ccccc1)*; CH2F = FC*

Tests used:
[1] = target: T1, recombinant caspase-9 (Homo sapiens, UniProt P55211); assay: Recombinant caspase-9 activity, cleavage of LEHD-AFC; format: biochemical
T1 sequence (P55211 1-315 limits assumed): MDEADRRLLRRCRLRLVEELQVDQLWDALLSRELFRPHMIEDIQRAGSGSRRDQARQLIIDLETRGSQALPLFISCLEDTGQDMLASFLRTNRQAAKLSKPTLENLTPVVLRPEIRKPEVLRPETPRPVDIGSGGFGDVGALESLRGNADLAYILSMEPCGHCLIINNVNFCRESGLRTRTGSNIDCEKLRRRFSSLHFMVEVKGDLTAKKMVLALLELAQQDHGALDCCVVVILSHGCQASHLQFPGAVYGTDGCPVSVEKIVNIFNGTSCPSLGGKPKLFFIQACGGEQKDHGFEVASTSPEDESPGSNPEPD
T1 sequence (P55211 331-416 limits assumed): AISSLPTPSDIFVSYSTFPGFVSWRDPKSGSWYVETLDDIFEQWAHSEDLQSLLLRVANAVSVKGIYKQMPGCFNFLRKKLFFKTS
Description: The inhibition of the DEVDase activity in the in vitro caspase activation system could be due to a direct inhibition of caspase-9, -3, or -7 activities, or to the inhibition of the apoptosome formation. To test if compounds a, f, and g were specific caspase inhibitors, recombinant caspase-3 and caspase-9 were incubated with the three compounds and the enzymatic activities of caspases were monitored by analysing the cleavage of the caspase-3 substrate DEVD-AFC or the caspase-9 substrate LEHD-AFC, respectively.

[2] = test system: caspase-9, caspase-3 and caspase-7 processing; DFF45/ICAD and PARP cleavage; assay: Processing of caspases and caspase substrates in Cc/dATP-stimulated cell extract, Western blotting; format: biochemical; settings: cell extracts stimulated with Cc/dATP; Western blot; dose dependence
Description: Activation of endogene caspases is induced by addition of 1 mM dATP and 1 μM horse heart cytochrome c to cytosolic extract (protein concentration; 5-10 mg/ml) in the presence of DEVD-AFC and the compound (final concentration 100 μM). Activated DEVD'ases (AFC release) is measured by fluorometry in 96-well plates at 37° C. After end measurements 2× LSB-Mechaptoethanol are added to the samples for assessment of caspase processing by immunoblot analysis.
Next, the effect of the compounds on the processing of caspases and caspase substrates in the in vitro model system was analysed by Western blotting. Caspase-9, caspase-3 and caspase-7 were processed into p35, p17, and p20 active fragments, respectively, in response to Cc/dATP. Accordingly, Cc/dATP induced a threefold induction in DEVDase activity and cleavage of the caspase-3 substrates DFF45/ICAD and PARP.

[3] = test system: DEVDase (caspase-3-like protease); assay: Inhibition of DEVDase in cytochrome c/dATP-activated Hela cytosolic extract (method 1); format: biochemical; settings: compound final concentration 100 μM; 1 mM dATP and 1 μM cytochrome c; DEVD-AFC
Description: Hela cells are grown in large petri dishes until subconfluency. Cells are then harvested and washed in PBS. The cell pellet is resuspended in equal volumes of ice-cold isotonic lysisbuffer (SCA; 20 mM Hepes-KOH pH 7.5, 10 mM KCl, 1.5 mM MgCl2, 1 mM EDTA, 1 mM EGTA, 250 mM sucrose, 1 mM DTT, 10 μg/ml aprotinin, 1 μg/ml leupeptin, 1 μg/ml pepstatin A, 100 μg/ml peta-block), incubated on ice for 30 min and lysed by approx. 30 strokes of a dounce homogenizer. The lysate is then centrifuged at 750 g for 10 min, and the supernatant thereof at 10,000 g for 10 min and at 20,000 g for 30 min. The clarified supernatant is removed carefully and stored in aliquots at −80° C. Activation of endogene caspases is induced by addition of 1 mM dATP and 1 μM horse heart cytochrome c to cytosolic extract (protein concentration; 5-10 mg/ml) in the presence of DEVD-AFC and the compound (final concentration 100 μM). Activated DEVD'ases (AFC release) is measured by fluorometry in 96-well plates at 37° C. After end measurements 2× LSB-Mechaptoethanol are added to the samples for assessment of caspase processing by immunoblot analysis. Percent inhibition is calculated as follows: [formula]

[4] = target: T2, recombinant caspase-3 (Homo sapiens, UniProt P42574); assay: Recombinant caspase-3 activity, cleavage of DEVD-AFC; format: biochemical
T2 sequence (P42574 29-175 limits assumed): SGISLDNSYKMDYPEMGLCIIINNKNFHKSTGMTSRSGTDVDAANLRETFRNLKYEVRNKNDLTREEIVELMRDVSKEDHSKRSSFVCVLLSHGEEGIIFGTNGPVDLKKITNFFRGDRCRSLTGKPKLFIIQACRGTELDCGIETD
T2 sequence (P42574 176-277 limits assumed): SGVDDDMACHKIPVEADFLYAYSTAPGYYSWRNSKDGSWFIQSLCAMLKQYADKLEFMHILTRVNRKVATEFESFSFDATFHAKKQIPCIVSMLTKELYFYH
Description: To test if compounds a, f, and g were specific caspase inhibitors, recombinant caspase-3 and caspase-9 were incubated with the three compounds and the enzymatic activities of caspases were monitored by analysing the cleavage of the caspase-3 substrate DEVD-AFC or the caspase-9 substrate LEHD-AFC, respectively.

[5] = test system: MCF-casp3 cells; assay: TNF-induced cell death of MCF-casp3 cells
Description: (§1) The ability of compound f to inhibit cell death was examined in MCF-neo and MCF-casp3 cells. […] To analyse the mechanism of the action of compound f in alive cells, MCF-casp3 cells were treated with TNF (5 ng/ml) in the presence of 50 μM compound f and the activity of caspase-3-like proteases was measured by a DEVDase enzyme assay.

[6] = test system: MCF-neo cells; assay: TNF-induced cell death of MCF-neo cells; format: cell-based
Description: as §1

[7] = target: T3, apoptosome complex (Apaf-1 and caspase-9) (Homo sapiens, UniProt O14727+P55211); assay: Apoptosome formation: co-immunoprecipitation of Apaf-1 with caspase-9 in cell extract; format: binding; settings: 1 μM zVAD-fmk, 1 hour with Cc/dATP prior to IP
T3 construct: Caspase-9 antibody precipitated practically all caspase-9 present in the cell extract; endogenous in cells; host or cells: cell extract
T3 sequence (O14727 1-1248): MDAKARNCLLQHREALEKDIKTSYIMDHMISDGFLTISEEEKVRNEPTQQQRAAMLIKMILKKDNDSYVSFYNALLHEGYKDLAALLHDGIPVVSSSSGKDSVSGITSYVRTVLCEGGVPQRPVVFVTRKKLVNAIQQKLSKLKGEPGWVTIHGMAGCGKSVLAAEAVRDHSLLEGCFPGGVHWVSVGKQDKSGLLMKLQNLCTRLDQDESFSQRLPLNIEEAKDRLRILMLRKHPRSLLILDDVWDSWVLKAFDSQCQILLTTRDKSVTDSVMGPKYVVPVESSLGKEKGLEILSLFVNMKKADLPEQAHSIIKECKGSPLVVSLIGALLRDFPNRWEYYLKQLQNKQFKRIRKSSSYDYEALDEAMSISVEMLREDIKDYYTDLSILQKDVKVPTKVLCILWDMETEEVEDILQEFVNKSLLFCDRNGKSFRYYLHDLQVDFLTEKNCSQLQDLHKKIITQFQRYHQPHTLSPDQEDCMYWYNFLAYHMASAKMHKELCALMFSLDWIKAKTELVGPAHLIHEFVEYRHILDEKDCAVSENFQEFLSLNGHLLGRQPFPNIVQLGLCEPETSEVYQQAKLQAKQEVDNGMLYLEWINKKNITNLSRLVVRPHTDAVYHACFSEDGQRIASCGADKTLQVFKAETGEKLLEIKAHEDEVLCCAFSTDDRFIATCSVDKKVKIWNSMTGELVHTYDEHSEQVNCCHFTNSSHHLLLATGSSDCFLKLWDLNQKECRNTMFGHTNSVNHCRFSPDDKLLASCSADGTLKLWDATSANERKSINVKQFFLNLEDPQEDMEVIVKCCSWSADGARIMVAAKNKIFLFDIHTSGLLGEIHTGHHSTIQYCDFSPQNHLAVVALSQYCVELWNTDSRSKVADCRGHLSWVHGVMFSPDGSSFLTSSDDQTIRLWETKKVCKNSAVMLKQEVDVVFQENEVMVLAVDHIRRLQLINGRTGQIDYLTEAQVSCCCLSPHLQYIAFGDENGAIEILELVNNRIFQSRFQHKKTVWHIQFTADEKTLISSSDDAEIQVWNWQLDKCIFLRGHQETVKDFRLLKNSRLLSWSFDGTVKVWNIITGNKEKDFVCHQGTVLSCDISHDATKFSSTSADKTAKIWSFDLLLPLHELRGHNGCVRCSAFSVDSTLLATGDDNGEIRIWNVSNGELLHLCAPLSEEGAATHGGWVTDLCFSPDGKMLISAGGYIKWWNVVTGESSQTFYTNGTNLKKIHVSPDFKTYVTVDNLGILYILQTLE
T3 sequence (P55211 1-416): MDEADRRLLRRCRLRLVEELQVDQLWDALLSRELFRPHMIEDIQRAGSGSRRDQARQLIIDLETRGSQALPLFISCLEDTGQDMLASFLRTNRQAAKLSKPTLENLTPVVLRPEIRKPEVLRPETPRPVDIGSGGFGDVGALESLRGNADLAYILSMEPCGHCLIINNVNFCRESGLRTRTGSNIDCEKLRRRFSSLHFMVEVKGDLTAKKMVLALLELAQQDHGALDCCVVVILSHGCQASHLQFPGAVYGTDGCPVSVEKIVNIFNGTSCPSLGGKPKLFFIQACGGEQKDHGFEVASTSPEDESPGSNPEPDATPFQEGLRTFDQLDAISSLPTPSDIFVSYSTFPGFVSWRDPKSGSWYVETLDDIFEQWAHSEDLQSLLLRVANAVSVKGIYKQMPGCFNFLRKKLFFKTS
Description: Next, it was tested whether compound f interferes with the formation of apoptosome complex in response to Cc/dATP. Cell extracts were incubated with Cc/dATP in the presence or absence of 100 μM compound f or 1 μM zVAD-fmk for 1 hour prior to the immunoprecipitation (IP) of caspase-9. […] Hsp90, which has been proposed to associate with Apaf-1 and prevent oligomerization and caspase-9 recruitment, was not co-immunoprecipitated with caspase-9.

[8] = 25 to 100 μM, LEHD-AFC substrate
[9] = 25 to 100 μM, DEVD-AFC substrate

O=C(Nc1cccc(C(F)(F)F)c1)Nc1ccc(O)cc1O [g, [N-(2,4-Dihydroxyphenyl)-N′-(3-trifluoromethylphenyl)]urea]
inhibition of recombinant caspase-9 activity [1, 8]: failed to inhibit
inhibition of caspase-9, -3 and -7 processing and DFF45/ICAD and PARP cleavage [2]: dose-dependent inhibition
% Inhibition [3]: 74%
inhibition of recombinant caspase-3 activity [4, 9]: failed to inhibit

COC(=O)C[C@H](NC(=O)[C@H](C)NC(=O)[C@@H](NC(=O)OCc1ccccc1)C(C)C)C(=O)CF [zVAD-fmk, reference compound] (Cbz-Val-Ala-Asp(OMe)-CH2F)
TNF-induced death ([5]; 50 μM zVAD-fmk): blocked completely
inhibition of recombinant caspase-9 activity ([1]; 1 μM zVAD-fmk): almost total inhibition
TNF-induced death ([6]; 50 μM zVAD-fmk): blocked completely
co-immunoprecipitation of Apaf-1 with caspase-9 [7]: efficiently co-immunoprecipitated
inhibition of recombinant caspase-3 activity ([4]; 1 μM zVAD-fmk): almost total inhibition

O=c1onc2cnc3cc([N+](=O)[O-])ccc3n12 [e, 7-Nitro-1,2,4-oxadiazolo[3,4-d]benz[b]-1,4-diazin-1-one]
% Inhibition [3]: 63%

c1ccc(-c2cccc(-n3cnc4ccccc43)c2)cc1 [d, 1-(3-Biphenyl)-benzimidazole]
% Inhibition [3]: 58%

CN1[C@H]2CC[C@@H]1[C@@H](c1nc(-c3cccs3)no1)[C@@H](c1ccc3ccccc3c1)C2.Cl [c, (1R,2S,3S)-2-[3-(2-Thienyl)-1,2,4-oxadiazol-5-yl]-3-(2-naphthyl)-tropane hydrochloric acid salt]
% Inhibition [3]: 60%
melting point: 149 to 150 °C

CC(=O)N[C@@H](CC(=O)O)C(=O)N[C@@H](CCC(=O)O)C(=O)N[C@H](C(=O)N[C@H](C=O)CC(=O)O)C(C)C [DEVD-CHO, reference compound]
cell death induced by TNF ([5]; 1 ng/ml TNF, 200 μM DEVD-CHO): blocked
protection against TNF ([5]; 5 ng/ml TNF, 200 μM DEVD-CHO): significant protection
inhibition of recombinant caspase-9 activity ([1]; 0.1 μM DEVD-CHO): almost total inhibition
cell death induced by TNF ([6]; 1 ng/ml TNF, 200 μM DEVD-CHO): blocked
protection against TNF ([6]; 5 ng/ml TNF, 200 μM DEVD-CHO): significant protection

COC(=O)c1cc(NC(=O)Nc2cccc(C(F)(F)F)c2)c(O)cc1[N+](=O)[O-] [a, [N-(2-Hydroxy-5-methoxycarbonyl-4-nitrophenyl)-N′-(3-trifluoromethylphenyl)]urea]
inhibition of recombinant caspase-9 activity [1, 8]: failed to inhibit
inhibition of caspase-9, -3 and -7 processing and DFF45/ICAD and PARP cleavage [2]: dose-dependent inhibition
% Inhibition [3]: 80%
inhibition of recombinant caspase-3 activity [4, 9]: failed to inhibit
